# Read-outs that look alike come from different tables or passages of the source.
# Tests used:
# [1] = system: caries-producing organisms in dental plaque; C albicans; details: toothpaste, mouthwash or other orally acceptable vehicle
# [2] = 45 minutes after ingestion of 200 mg potassium nitrate solution; fasting mean 114 μM
# C albicans = system: C albicans
# Experimental: With reference to FIG. 1 a single colony of C albicans was used to inoculate an overnight culture in Sabouraud's broth. 10 μl of this broth was added to 940 μl of a citrate/phosphate buffered Sabouraud's broth to which was added sodium nitrite (50 μl; final concentration 250 μM) or distilled water as a control. After one hour incubation at 37° C., 10 μl was removed and cultured in 190 μl standard Sabourauds broth with continual agitation (Gallenkamp orbital incubator) in a 96-well microtitre plate at 37° C. Growth was monitored by measurement of optical density at 570 nm at regular time intervals. The results are a mean of 16 separate experiments.
# The open bars show the growth of C albicans measured by the optical density method following exposure to acid alone for 1 hour, while the closed bars show growth following exposure to acid and 250 μM sodium nitrite.
# [3] = system: E coli (strain NCTC 10418)
# Text: The results shown in FIGS. 2A and 2B are a mean of 20 experiments.
# The methods are those as for FIG. 2.
SMILES,reduction of caries-producing organisms in dental plaque / treatment or prevention of infection with C albicans [1],salivary nitrite (mean) [2],"killing of C albicans (C albicans; 5 nN nitrite, up to pH5)","survival of C albicans (growth by optical density) (C albicans; 250 μgM sodium nitrite, one hour, pH reduced to below 4)","elimination of C albicans (C albicans; pH 1, all concentrations above 250 μM (data not shown))","effect on E coli ([3]; 250 μM nitrite, above pH4)","growth of E coli compared with control (acid alone) ([3]; 250 μM nitrite, pH 2, 3 and 4)","survival of E coli ([3]; 250 μM nitrite, pH2, one hour)","viability of E coli ([3]; 250 μM nitrite, pH3 and pH4)","toxic effect on E coli ([3]; pH3, 10 μM)","toxic effect on E coli ([3]; pH3, 1 mM)"
O=[N+]([O-])O [nitrate],effective,,,,,,,,,,
O=[N+]([O-])[O-].[K+] [potassium nitrate],,1030 µM,,,,,,,,,
O=NO [sodium nitrite],effective,,killed C albicans,incrementally killed C albicans,effective in eliminating C albicans,no effect,significantly (p<0.05) impaired,eliminates E coli,significantly reduces the viability,discernable effect,killed E coli completely

# From US6709681B2, “Acidified nitrite as an antimicrobial agent” (Aberdeen University, priority 1995, dated 2004)
